Measured values reported in paper PMC7248705, “A Pharmacokinetic and Pharmacodynamic Evaluation of the Anti-Hepatocellular Carcinoma Compound 4-N-Carbobenzoxy-gemcitabine (Cbz-dFdC)” (Molecules, 2020).
Entries after “also recorded” stand apart in the source; their conditions may differ.

How the values were obtained:
[1] = Enzymatic kinetics in vitro, rat liver homogenate; type: in vitro ADME; conditions: 37 °C, 30 min, 5–200 μM Cbz-dFdC
Description: (§1) The SD rats without any treatment were sacrificed after adapting to the environment. Blank blood, the liver, the kidney, and the intestine were collected and treated as described in Section 4.4. Part of the homogenate was removed for centrifugation for 20 min at 9000× g at 4 °C, and the supernatant was obtained as tissue S9. The tissue homogenate and S9 were diluted to […] after the protein concentration was determined by the BCA kit (Abcam, Cambridge, MA, USA). Each matrix consisted of 45 uL of the matrix mixed with 5 uL of the drug dissolved in normal saline solution for about 3 min, followed by incubation at 37 °C in a water bath. Then, acetonitrile containing the internal standard was added to terminate the reaction. Human tissue S9 and human CES1 recombinase purchased from the Ruid Liver Disease Research Co., Ltd. (Shanghai, China) were incubated under the same conditions. An enzyme kinetic study was obtained from the matrix following incubation at 37 °C for 30 min with 5, 10, 20, 50, 100, or 200 μM of Cbz-dFdC. We estimated the parameters and simulated curves according to the Eadie–Hofstee method.

human HepG2 cell line = test: CCK-8 tumor cell growth inhibition assay; type: cell-based; conditions: HepG2, CCK-8, concentration-dependent
Description: (§2) The cells were cultured on a 96-well plate for 4 h for each well. Then, dimethyl sulfoxide solution containing 0.1–100 mM of Cbz-dFdC and dFdC was diluted 1000 times with the medium before administration. A total of 200 uL of medium containing Cbz-dFdC and dFdC was added per well (n = 6). The medium with drugs was discarded, and 10% CCK-8 solution was added. Then, the absorbance value was read at a wavelength of 450 nm after incubation at 37 °C, for 30 min. The drug concentration of Cbz-dFdC and dFdC in cell were determined by a previously established method.

HepG2 cells = test: Cell uptake in HepG2 cells; type: cell-based, human
Description: as §2

[2] = Enzymatic kinetics in vitro, rat plasma; type: in vitro ADME; conditions: 37 °C, 30 min, 5–200 μM Cbz-dFdC
Description: as §1

[3] = Plasma pharmacokinetics in vivo; conditions: SD, rat, po; plasma analyte after i.g. Cbz-dFdC 22 mg/kg, rats
Description: SD rats (n = 6) were intragastrically administered Cbz-dFdC (22 mg/kg) and intravenously injected with dFdC (15 mg/kg), and 150 μL blood samples were collected from the retro-orbital route in the right eye at 0, 5, 10, 20, and 30 min and at 1, 2, 4, 6, 12, 24, and 48 h, using heparinized tubes. Without delay, the blood was directly centrifuged at 8000× g at 4 °C for 5 min. Then, the supernatant plasma was collected and immediately extracted using a previously established method or was frozen at −80 °C until further analysis.

[4] = Enzymatic kinetics in vitro, rat liver S9; type: in vitro ADME; conditions: 37 °C, 5–200 μM Cbz-dFdC
Description: as §1

[5] = Enzymatic kinetics in vitro, human liver S9; type: in vitro ADME
Description: as §1

[6] = Enzymatic kinetics in vitro, rat blood; type: in vitro ADME; conditions: 37 °C, 30 min, 5–200 μM Cbz-dFdC
Description: as §1

CES1 = biological target: T1, CES1 (Homo sapiens, UniProt P23141); test: Enzymatic kinetics in vitro, human CES1 recombinase; type: in vitro ADME; conditions: recombinant human CES1, 37 °C, 30 min, 5–200 μM Cbz-dFdC, read-out: Clint, disappearance of Cbz-dFdC
T1 construct: purchased Ruid Liver Disease Research Co., Ltd. (Shanghai, China)
T1 sequence (P23141 18-567): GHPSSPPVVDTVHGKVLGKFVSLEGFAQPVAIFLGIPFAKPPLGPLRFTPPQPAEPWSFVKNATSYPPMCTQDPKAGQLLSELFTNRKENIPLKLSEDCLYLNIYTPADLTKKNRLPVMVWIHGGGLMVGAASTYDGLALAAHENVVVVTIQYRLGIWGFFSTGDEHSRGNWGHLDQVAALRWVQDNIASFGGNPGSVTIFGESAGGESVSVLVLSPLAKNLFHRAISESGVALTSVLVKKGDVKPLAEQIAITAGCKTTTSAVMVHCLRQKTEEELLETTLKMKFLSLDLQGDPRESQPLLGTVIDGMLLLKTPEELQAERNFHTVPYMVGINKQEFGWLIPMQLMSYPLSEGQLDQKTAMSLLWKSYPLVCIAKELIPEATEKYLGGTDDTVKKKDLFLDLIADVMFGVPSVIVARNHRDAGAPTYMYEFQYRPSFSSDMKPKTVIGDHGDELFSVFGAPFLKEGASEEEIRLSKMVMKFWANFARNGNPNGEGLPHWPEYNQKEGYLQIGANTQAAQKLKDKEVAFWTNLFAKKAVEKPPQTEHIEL
Description: as §1

HepG2 tumor = test: Antitumor efficacy in vivo, HepG2 tumor-bearing mice; conditions: 15 days, Cbz-dFdC i.g. 22 mg/kg/day vs dFdC i.p. 15 mg/kg/day (equimolar)
Description: A cell suspension (2 × 10^7 cells/mL) of HepG2 with 0.2 mL was subcutaneously injected into the right armpits of the mice. After the hepatocellular carcinomas were inoculated, mice bearing an overt tumor with a size of 100–200 mm^3 were randomized into the control and treatment groups. One group was injected (i.p.) with PBS as the control group, Cbz-dFdC groups were given with 22 mg/kg/day (i.g.), respectively, and the dFdC groups were given with 15 mg/kg/day (i.p.), respectively. The tumor sizes of all mice were monitored at 0 d, 3 d, 6 d, 9 d, 12 d, and 15 d after drug treatment. The tumor size was converted into tumor volume (V), which was calculated by the formula (L × W^2 × 0.52) and presented as the mean ± standard deviation, where L and W are the length and width of the tumor, respectively. The tumors were measured with a Vernier caliper until day 15, when the PBS brine-treated mice began to die, then all […] were sacrificed via nitrogen inhalation.

[7] = Incubation in human plasma and S9 of the kidney and intestine; type: in vitro ADME
Description: as §1

[8] = read-out: Km, appearance of dFdC
[9] = read-out: Km, disappearance of Cbz-dFdC
[10] = SD, read-out: Clint, disappearance of Cbz-dFdC
[11] = Human Liver S9, 37 °C, 30 min, 5–200 μM Cbz-dFdC

SMILES: O=C(Nc1ccn([C@@H]2O[C@H](CO)[C@@H](O)C2(F)F)c(=O)n1)OCc1ccccc1 [Cbz-dFdC, 4-N-carbobenzoxy-gemcitabine]
- Vmax, appearance of dFdC [1]: 86.8 nmol/min/mg pro
- Vmax, disappearance of Cbz-dFdC [1]: 411.6 nmol/min/mg pro
- Km [1, 8]: 96.4 µM
- Km [1, 9]: 190 µM
- microsomal CLint [1, 10]: 2170 µL/min/mg
- cytotoxicity / tumor cell growth inhibition (human HepG2 cell line): certain cytotoxicity; also recorded: lower than that of an equimolar dose of dFdC
- intracellular concentration (cell uptake) (HepG2 cells): low
- Vmax, appearance of dFdC [2]: 230.4 nmol/min/mg pro
- Vmax, disappearance of Cbz-dFdC [2]: 486.2 nmol/min/mg pro
- Km [2, 8]: 101 µM
- Km [2, 9]: 90.3 µM
- microsomal CLint [2, 10]: 5380 µL/min/mg
- AUC(0-inf) [3]: 2690 ± 457 ng·h/mL
- Cmax [3]: 451 ± 107 ng/mL
- Tmax [3]: 2 h
- half-life [3]: 595 ± 112 min
- Vmax, appearance of dFdC ([4]; 30 min): 49.5 nmol/min/mg pro
- Vmax, disappearance of Cbz-dFdC ([4]; 30 min): 169.6 nmol/min/mg pro
- Km at 30 min ([4]; SD, read-out: Km, disappearance of Cbz-dFdC): 96.3 µM
- microsomal CLint ([4]; SD, 30 min, read-out: Clint, disappearance of Cbz-dFdC): 1760 µL/min/mg
- Vmax, appearance of dFdC [5, 11]: 480.6 nmol/min/mg pro
- Vmax, disappearance of Cbz-dFdC [5, 11]: 1491.3 nmol/min/mg pro
- microsomal CLint ([5]; Human Liver S9, 37 °C, 30 min, 5–200 μM Cbz-dFdC, read-out: Clint, disappearance of Cbz-dFdC): 13800 µL/min/mg
- Km at 30 min ([5]; Human Liver S9, 37 °C, 30 min, 5–200 μM Cbz-dFdC, read-out: Km, disappearance of Cbz-dFdC): 108 µM
- stability in human liver S9 ([5]; human liver S9, easily hydrolyzed into dFdC): unstable
- Vmax, appearance of dFdC [6]: 178.5 nmol/min/mg pro
- Vmax, disappearance of Cbz-dFdC [6]: 341.1 nmol/min/mg pro
- Km [6, 8]: 73.2 µM
- Km [6, 9]: 69.8 µM
- microsomal CLint [6, 10]: 4890 µL/min/mg
- microsomal CLint (CES1): 72700 µL/min/mg
- antitumor effect (tumor size) (HepG2 tumor): slightly better than that of dFdC
- stability towards CES2 in humans ([7]; concluded from tissue-specific CES expression, humans): relatively stable in CES2
- degradation in human plasma and S9 of the kidney and intestine ([7]; human plasma, kidney S9, intestine S9): did not degrade
